Experimental data reported in patent publication US20110172147A1, “NEUROPEPTIDE-2 RECEPTOR (Y-2R) AGONISTS” (priority 2009, published 2011).

What was measured:
Assay type in all cases: cell-based
Y5R = target: T1, Y5R (Homo sapiens, UniProt Q15761); assay: CaFlux Assay (FLIPR), Y5R
T1 sequence (Q15761 1-445): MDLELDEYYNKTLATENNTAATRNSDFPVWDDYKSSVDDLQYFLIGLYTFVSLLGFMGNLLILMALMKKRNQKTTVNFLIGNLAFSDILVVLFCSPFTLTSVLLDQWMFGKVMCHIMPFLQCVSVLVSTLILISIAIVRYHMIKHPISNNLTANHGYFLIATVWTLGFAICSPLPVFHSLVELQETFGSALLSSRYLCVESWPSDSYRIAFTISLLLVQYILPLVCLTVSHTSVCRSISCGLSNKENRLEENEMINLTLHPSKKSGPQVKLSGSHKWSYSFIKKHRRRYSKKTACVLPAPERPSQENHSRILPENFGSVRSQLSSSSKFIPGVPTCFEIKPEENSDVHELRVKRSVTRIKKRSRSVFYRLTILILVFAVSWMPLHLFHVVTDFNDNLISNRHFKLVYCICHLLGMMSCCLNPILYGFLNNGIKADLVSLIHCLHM

Y1R = target: T2, Y1R (Homo sapiens, UniProt P25929); assay: CaFlux Assay (FLIPR), Y1R
T2 sequence (P25929 1-384): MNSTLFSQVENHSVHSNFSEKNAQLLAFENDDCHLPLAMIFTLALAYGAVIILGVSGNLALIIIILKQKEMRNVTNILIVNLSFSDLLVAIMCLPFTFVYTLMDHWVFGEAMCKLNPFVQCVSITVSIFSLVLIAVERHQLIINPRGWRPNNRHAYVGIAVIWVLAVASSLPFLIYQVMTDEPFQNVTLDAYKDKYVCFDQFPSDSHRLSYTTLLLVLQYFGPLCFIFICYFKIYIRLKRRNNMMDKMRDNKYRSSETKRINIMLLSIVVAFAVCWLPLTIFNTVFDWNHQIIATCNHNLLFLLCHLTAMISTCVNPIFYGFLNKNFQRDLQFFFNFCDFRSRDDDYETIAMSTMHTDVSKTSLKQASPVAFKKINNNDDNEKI

hNPY2R [1] = target: T3, hNPY2R (Homo sapiens, UniProt P49146); assay: CaFlux Assay (FLIPR), Y2R; set-up: expressed in transfected cells; host or cells: HEK-293 stably transfected with G protein chimera Gαqi9
T3 sequence (P49146 1-381): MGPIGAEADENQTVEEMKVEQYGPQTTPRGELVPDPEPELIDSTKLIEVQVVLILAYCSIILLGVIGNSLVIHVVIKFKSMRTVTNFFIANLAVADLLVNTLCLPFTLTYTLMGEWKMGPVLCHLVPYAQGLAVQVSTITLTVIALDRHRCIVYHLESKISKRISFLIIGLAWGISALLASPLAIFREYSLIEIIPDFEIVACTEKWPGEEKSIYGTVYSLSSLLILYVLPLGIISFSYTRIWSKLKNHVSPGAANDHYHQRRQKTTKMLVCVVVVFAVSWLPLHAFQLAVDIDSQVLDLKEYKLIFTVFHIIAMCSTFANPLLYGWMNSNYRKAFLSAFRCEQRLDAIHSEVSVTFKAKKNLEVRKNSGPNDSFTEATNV
Experimental: HEK-293 cells were stably transfected with the G protein chimera Gαqi9 and the hygromycin-B resistance gene were further transfected with the human NPY2 receptor and G418 antibiotic selection. Following selection in both hygromycin-B and G418, individual clones were assayed for their response to PYY. The transfected cells were cultured in DMEM medium supplemented with 10% fetal bovine serum, 50 μg/mL hygromycin-B, 2 mM glutamine, 100 U/mL penicillin, 100 μg/mL streptomycin and 250 μg/mL G418. Cells are harvested with trypsin-EDTA and counted using ViaCount reagent. The cell suspension volume is adjusted to 4.8×10^5 cells/mL with complete growth media. Aliquots of 25 μL are dispensed into 384 well Poly-D Lysine coated black/clear microplates (Falcon) and the microplates were placed in a 37° C. CO2 incubator overnight. Loading Buffer (Calcium-3 Assay Kit, Molecular Devices) was prepared by dissolving the contents of one vial (Express Kit) into […] Hank's Balanced Salt Solution containing 20 mM HEPES and 5 mM probenecid. Aliquots of 25 μL of diluted dye were dispensed into the cell plates and the plates are then incubated for 1 hour at 37° C. During the incubation, test compounds were prepared at 3.5× the desired concentration in HBSS (20 mM HEPES)/0.05% BSA/1% DMSO and transferred to a 384-well plate for use on FLIPR. After incubation, both the cell and compound plates were brought to the FLIPR and 20 μL of the diluted compounds were transferred to the cell plates by the FLIPR. During the assay, fluorescence readings were taken simultaneously from all 384 wells of the cell plate every 1.5 seconds. Five readings were taken to establish a stable baseline, and then 20 μL of sample was rapidly (30 μL/sec) and simultaneously added to each well of the cell plate. The fluorescence was continuously monitored before, during and after sample addition for a total elapsed time of 100 seconds. Responses (increase in peak fluorescence) in each well following addition were determined. The initial fluorescence reading from each well, prior to ligand stimulation, was used as a zero baseline value for the data from that well. The responses are expressed as % of maximal response of the positive control.

Y4R = Y4R (Homo sapiens, UniProt P50391); assay: CaFlux Assay (FLIPR), Y4R
hNPY2R [2] = target: T3, hNPY2R; assay: cAMP Agonist Assay, HEK293/hNPY2R; set-up: expressed in transfected cells; host or cells: HEK293/hNPY2R (G418 selection)
Experimental: In this example, the following materials were used: 384-well plate; Tropix cAMP-Screen Kit; cAMP ELISA System (Applied Biosystems, cat. #T1505; CS 20000); Forskolin (Calbiochem cat. # 344270); cells: HEK293/hNPY2R; growth medium: Dulbecco's modified eagle medium (D-MEM, Gibco); 10% Fetal bovine serum (FBS, Gibco), heat-inactivated; 1% Penicillin/Streptomycin (Pen 10000 unit/mL: Strep […], Gibco); […] G418 (Geneticin, Gibco cat. # 11811-031); and plating medium: DMEM/F12 w/o phenol red (Gibco); 10% FBS (Gibco, cat. # 10082-147), heat-inactivated; 1% Penicillin/Streptomycin (Gibco, cat. # 15140-122); […] G418 (Geneticin, Gibco, cat. # 11811-031).
On the first day, medium was discarded, and the monolayer cells were washed with 10 mL PBS per flask (T225). After decanting with PBS, 5 mL VERSENE (Gibco, cat #1504006) was used to dislodge the cells (5 min @37 C). The flask was gently tapped and the cell suspension was pooled. Each flask was rinsed with 10 mL plating medium and centrifuged at 1000 rpm for 5 min. The suspension was pooled and counted. The suspension was resuspended in plating medium at a density of 2.0×10^5 cells/mL for HEK293/hNPY2R. 50 microliters of cells (HEK293/hNPY2R-10,000 cells/well) were transferred into the 384-well plate using Multi-drop dispenser. The plates were incubated at 37° C. overnight. On the second day, the cells were checked for 75-85% confluence. The media and reagents were allowed to come to room temperature. Before the dilutions were prepared, the stock solution of stimulating compound in dimethyl sulphoxide (DMSO, Sigma, cat #D2650) was allowed to warm up to 32 C for 5-10 min. The dilutions were prepared in DMEM/F12 with 0.5 mM 3-Isobutyl-1-methylxanthine (IBMX, Calbiochem, cat #410957) and 0.5 mg/mL BSA. The final DMSO concentration in the stimulation medium was 1.1% with Forskolin concentration of 5 μM. The cell medium was tapped off with a gentle inversion of the cell plate on a paper towel. 50 μL of stimulation medium was placed per well (each concentration done in four replicates). The plates were incubated at room temperature for 30 min, and the cells were checked under a microscope for toxicity. After 30 minutes of treatment, the stimulation media was discarded and […] of Assay Lysis Buffer (provided in the Tropix kit) was added. The plates were incubated for 45 min @ 37° C. 20 μL of the lysate was transferred from stimulation plates into the pre-coated antibody plates (384-well) from the Tropix kit. 10 μL of AP conjugate and 20 μL of anti-cAMP antibody was added. The plates were incubated at room temperature while shaking for 1 hour. The plates were then washed 5 times with Wash Buffer, 70 μL per well for each wash. The plates were tapped to dry. 30 μL/well of CSPD/Saphire-II RTU substrate/enhancer solution was added and incubated for 45 min @ RT (shake). Signal for 1 sec/well in a Luminometer. (VICTOR-V) was measured.

Sequence of Y4R (P50391 whole entry): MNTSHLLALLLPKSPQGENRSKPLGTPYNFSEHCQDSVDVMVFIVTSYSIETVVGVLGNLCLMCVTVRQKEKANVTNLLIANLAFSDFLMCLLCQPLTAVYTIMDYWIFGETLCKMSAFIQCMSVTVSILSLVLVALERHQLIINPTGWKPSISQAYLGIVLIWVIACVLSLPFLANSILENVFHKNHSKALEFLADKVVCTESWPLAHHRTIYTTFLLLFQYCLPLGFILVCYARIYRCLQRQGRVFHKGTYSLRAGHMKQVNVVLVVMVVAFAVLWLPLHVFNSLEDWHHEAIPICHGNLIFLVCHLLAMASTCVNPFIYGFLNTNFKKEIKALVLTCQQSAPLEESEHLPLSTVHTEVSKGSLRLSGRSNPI

| SMILES | EC50 (Y5R) | EC50 (Y1R) | EC50 (hNPY2R [1]) | EC50 (Y4R) | EC50 (hNPY2R [2]) |
| --- | --- | --- | --- | --- | --- |
| CCCCCCCCCCCCCCCC(=O)NCCOCCNC(=O)CCC(=O)NCCCC[C@H](NC(=O)[C@@H](NC(=O)CCOCCOCCOCCOCCOCCOCCOCCOCCOCCOCCOCCOCCOCCOCCOCCOCCOCCOCCOCCOCCOCCOCCOCCOC)[C@@H](C)CC)C(=O)N1CCN(c2ccc3ncn(CC(=O)N[C@@H](CCCNC(N)=O)C(=O)N[C@@H](Cc4c[nH]cn4)C(=O)N[C@@H](Cc4ccc(O)cc4)C(=O)N[C@@H](CC(C)C)C(=O)N[C@@H](CC(N)=O)C(=O)N[C@@H](Cc4c[nH]c5ccccc45)C(=O)N[C@H](C(=O)N[C@H](C(=O)N[C@@H](CCCNC(=N)N)C(=O)N[C@@H](CCC(N)=O)C(=O)N(C)[C@@H](CCCNC(=N)N)C(=O)N[C@@H](Cc4ccc(O)cc4)C(N)=O)[C@@H](C)O)C(C)C)c(=O)c3c2)CC1 [Example 16] | 1.36 µM | > 5 µM | 0.059 nM | > 5 µM | 0.09 nM |
| CC[C@H](C)[C@H](NC(=O)CCCCCNC(=O)CCOCCOCCOCCOCCOCCOCCOCCOC)C(=O)N[C@@H](CCCCN)C(=O)N1CCN(c2ccc3ncn(CC(=O)N[C@@H](CCCNC(=N)N)C(=O)N[C@@H](Cc4c[nH]cn4)C(=O)N[C@@H](Cc4ccc(O)cc4)C(=O)N[C@@H](CC(C)C)C(=O)N[C@@H](CC(N)=O)C(=O)N[C@@H](Cc4c[nH]c5ccccc45)C(=O)N[C@H](C(=O)N[C@H](C(=O)N[C@@H](CCCNC(=N)N)C(=O)N[C@@H](CCC(N)=O)C(=O)N(C)[C@@H](CCCNC(=N)N)C(=O)N[C@@H](Cc4ccc(O)cc4)C(N)=O)[C@@H](C)O)C(C)C)c(=O)c3c2)CC1 [Example 17] | > 6 µM | > 6 µM | 0.479 nM | > 6 µM | 1.4 nM |
| CC[C@H](C)[C@H](NC(=O)CCCCCNC(=O)CCOCCOCCOCCOCCOCCOCCOCCOCCOCCOCCOCCOC)C(=O)N[C@@H](CCCCN)C(=O)N1CCN(c2ccc3ncn(CC(=O)N[C@@H](CCCNC(=N)N)C(=O)N[C@@H](Cc4c[nH]cn4)C(=O)N[C@@H](Cc4ccc(O)cc4)C(=O)N[C@@H](CC(C)C)C(=O)N[C@@H](CC(N)=O)C(=O)N[C@@H](Cc4c[nH]c5ccccc45)C(=O)N[C@H](C(=O)N[C@H](C(=O)N[C@@H](CCCNC(=N)N)C(=O)N[C@@H](CCC(N)=O)C(=O)N(C)[C@@H](CCCNC(=N)N)C(=O)N[C@@H](Cc4ccc(O)cc4)C(N)=O)[C@@H](C)O)C(C)C)c(=O)c3c2)CC1 [Example 18] | > 6 µM | > 6 µM | 0.357 nM | > 6 µM | 0.9 nM |
| CC[C@H](C)[C@H](NC(=O)CCCCCNC(=O)CCOCCOCCOCCOCCOCCOCCOCCOCCOCCOCCOCCOCCOCCOCCOCCOC)C(=O)N[C@@H](CCCCN)C(=O)N1CCN(c2ccc3ncn(CC(=O)N[C@@H](CCCNC(=N)N)C(=O)N[C@@H](Cc4c[nH]cn4)C(=O)N[C@@H](Cc4ccc(O)cc4)C(=O)N[C@@H](CC(C)C)C(=O)N[C@@H](CC(N)=O)C(=O)N[C@@H](Cc4c[nH]c5ccccc45)C(=O)N[C@H](C(=O)N[C@H](C(=O)N[C@@H](CCCNC(=N)N)C(=O)N[C@@H](CCC(N)=O)C(=O)N(C)[C@@H](CCCNC(=N)N)C(=O)N[C@@H](Cc4ccc(O)cc4)C(N)=O)[C@@H](C)O)C(C)C)c(=O)c3c2)CC1 [Example 19] | > 6 µM | > 6 µM | 0.424 nM | > 6 µM | 0.26 nM |
| CC[C@H](C)[C@H](NC(=O)CCCCCNC(=O)CCOCCOCCOCCOCCOCCOCCOCCOCCOCCOCCOCCOCCOCCOCCOCCOCCOCCOCCOCCOCCOCCOCCOCCOC)C(=O)N[C@@H](CCCCN)C(=O)N1CCN(c2ccc3ncn(CC(=O)N[C@@H](CCCNC(=N)N)C(=O)N[C@@H](Cc4c[nH]cn4)C(=O)N[C@@H](Cc4ccc(O)cc4)C(=O)N[C@@H](CC(C)C)C(=O)N[C@@H](CC(N)=O)C(=O)N[C@@H](Cc4c[nH]c5ccccc45)C(=O)N[C@H](C(=O)N[C@H](C(=O)N[C@@H](CCCNC(=N)N)C(=O)N[C@@H](CCC(N)=O)C(=O)N(C)[C@@H](CCCNC(=N)N)C(=O)N[C@@H](Cc4ccc(O)cc4)C(N)=O)[C@@H](C)O)C(C)C)c(=O)c3c2)CC1 [Example 20] | > 6 µM | > 6 µM | 0.488 nM | > 6 µM | 0.89 nM |
